Laboratory results from US7728035B2, “Ester derivatives of rhein and their therapeutic use” (Sosei R&D Ltd., priority 2004, dated 2010).

Legend:
[1] = test system: clinical signs induced in the EAE model; assay: Experimental Autoimmune Encephalitis (EAE); type: in vivo, Male Lewis rats; settings: 150 mg/kg orally twice a day from the day of inoculation; scored daily from day 7 post-inoculation
Procedure: Experimental Autoimmune Encephalitis (EAE)
Male Lewis rats (250-290 g) (n=10) were injected into both rear foot-pad with 0.1 ml of an emulsion containing equal parts of guinea-pig spinal cord, phosphate buffered saline and incomplete Freund's adjuvant with 8 mg/ml Mycobacterium tuberculosis H37Ra. The compound of Example 1 (150 mg/kg) was dosed orally in a 10% acacia gum vehicle (1 ml/kg) twice a day from the day of inoculation.
Body weights and neurological scores were observed daily from day 7 post-inoculation. The total daily score was calculated for each group and plotted over time. Non-parametric statistical analyses (Kruskal-Wallis) one-way analysis, followed by a Dunn's test, were employed.

[2] = test system: TNFα and IL-1β levels; assay: LPS Mouse Assay; type: in vivo, Balb-c mice
Procedure: 7 week old Balb-c mice (n=8) fed and watered ad libitum were dosed at time zero with the compound of Example 1 at 3, 30 and 300 mg/kg in a 1% methylcellulose vehicle by oral gavage (10 ml/kg). 30 minutes after drug treatment mice were intraperitoneally administered with 1 mg/kg LPS (5 ml/kg in normal saline). 2 hours post-LPS challenge blood samples were collected by cardiac puncture under isoflurane anaesthesia. Blood samples were allowed to clot at room temperature for 10 minutes and then put on ice until spun at 6000 g for 3 minutes at 4° C. and then stored at −20° C. until analysis by ELISA for TNFα and IL-1β levels. TNFα and IL-1β levels were reported as pg/ml of serum (mean±SEM) significance was evaluated by a Dunnett's test followed by a Kruskal-Wallis one way analysis followed by a Dunn's test.

[3] = test system: cytokine production; assay: in vitro cytokine production (cellular assay); type: cell-based; settings: assay not described
[4] = test system: T-cell proliferation; assay: in vitro T-cell proliferation (cellular assay); type: cell-based; settings: assay not described

**Q.** How did the “efficacy on clinical signs (neurological scores) in the EAE model” value [1] turn out when `O=C(O)c1cc(OC(=O)C2CCOCC2)c2c(c1)C(=O)c1cccc(OC(=O)C3CCOCC3)c1C2=O` [Example 1, 4,5-Bis(tetrahydropyran-4-carbonyloxy)-9,10-dioxo-dihydroanthracene-2-carboxylic acid] was run?
**A.** The value was “significant efficacy”.

**Q.** And the “efficacy in the LPS mouse model (summary statement)” value ([2]; mouse, in vivo)?
**A.** The value was “efficacy”.

**Q.** And the “reduction of TNFα levels post-LPS insult” value ([2]; serum, ELISA, 3, 30 and 300 mg/kg by oral gavage 30 minutes before 1 mg/kg LPS i.p., blood 2 hours post-LPS, all three doses, dose-dependant)?
**A.** Its value is “significant efficacy on reducing TNFα levels”.

**Q.** And the “reduction of IL-1β levels post-LPS” value ([2]; serum, ELISA, oral gavage 30 minutes before 1 mg/kg LPS i.p., blood 2 hours post-LPS, at the top two doses (30 and 300 mg/kg))?
**A.** Its value is “reduced IL-1β levels”.

**Q.** How did the “inhibition of cytokine production” value [3] turn out when `O=C(O)c1cc(O)c2c(c1)C(=O)c1cccc(O)c1C2=O` [rhein, 1,8-dihydroxyanthraquinone-3-carboxylic acid] was run?
**A.** Its value is “fail to produce a response”.

**Q.** And the “inhibition of T-cell proliferation” value [4]?
**A.** Its value is “fail to produce a response”.
